Where “and” joins values, the source holds several entries; their conditions need not be identical. Equal entries are not always repeated.
Assays:
[1] = Clinical study: serum fatty acid profiles (EPA, ARA/EPA, Total Omega-3 Score); assay type: in vivo, human; conditions: 6 weeks
Protocol: (§1) On the samples obtained 4 hours after the fat-rich meal, total cholesterol, triglycerides, direct HDL cholesterol, and direct LDL cholesterol were measured. Direct LDL cholesterol and small dense LDL cholesterol levels were measured using kits obtained from Denka-Seiken Corporation, (Tokyo, Japan), as previously described (Okada, M. et al., supra; Hirano, T. et al., supra; Ai, M. et al., supra). Remnant lipoprotein cholesterol was measured using kits obtained from Polymedco (Cortland Manor, N.Y.) and manufactured by Otsuka Corporation (Tokyo, Japan) as previously described (McNamara, J. R. et al., Atherosclerosis, supra). All lipid assays are standardized through the Lipid Research Clinics standardization program of the Centers for Disease Control (Atlanta, Ga.). All assays had between and within run coefficients of variation of <5%. Serum fatty acid profiles were analyzed by Nutrasource Diagnostics (Guelph, Ontario, Canada).

[2] = Clinical study: inflammation markers, adhesion molecules, adiponectin (hsCRP, IL-6, sICAM, VCAM); assay type: in vivo, human; conditions: DHA 600 mg (n = 28); Fast; 6 weeks
Protocol: (§2) The following laboratory measurements were carried out on an automated analyzer (Roche Diagnostics, Indianapolis, Ind.) on samples obtained in the fasting state at the randomization visit, and the final visits using frozen aliquots of serum stored at −80 degrees Celsius: 1) total cholesterol; 2) triglycerides; 3) direct high density lipoprotein [“HDL”] cholesterol; 4) direct low density lipoprotein [“LDL”] cholesterol; 5) direct small dense LDL cholesterol; 6) apolipoprotein [“apo”] B; 7) apoA-I; 8) lipoprotein (a); 9) fibrinogen; 10) high sensitivity C reactive protein [“hs-CRP”]; 11) lipoprotein associated phospholipase A2 [“Lp-PLA2”]; and, 12) insulin as previously described. See, McNamara, J. R. and Schaefer, E. J., Clin. Chim. Acta, 166:1-8 (1987); Okada, M. et al., J. Lab. Clin. Med., 132:195-201 (1998); Hirano, T. et al., J. Lipid Res., 44:2193-2201 (2003); Ai, M. et al., Am. J. Cardiol., 101:315-318 (2008); Ingelsson, E. et al., JAMA, 298:776-785 (2007); Jenner, J. L. et al., Circulation, 87:1135-1141 (1993); Schaefer, E. J. et al., Am. J. Cardiol., 95:1025-1032 (2005); McNamara, J. R. et al., Atherosclerosis, 154:229-236 (2001).
Plasma apoB-48 was measured with an enzyme linked immunosorbent assay obtained from the Shibayagi Company (Gunma, Japan) (Kinoshita, M. et al., Clin. Chim. Acta, 351:115-120 (2005); Otokozawa, S. et al., Atherosclerosis, 205:197-201 (2009); Otokozawa, S. et al., Metabolism, 58(11): 1536-1542 (2009)). ICAM1 and VCAM1, interleukin-6 or IL-6, and adiponectin were all measured using commercially available enzyme linked immunoassays [“ELISA”] obtained from the R & D Corporation (Minneapolis, Minn.). All these assays have within and between run coefficients of variation of less than 10%.

[3] = TG forms; cited from earlier work
[4] = Clinical study: fasting serum lipids, lipoproteins and apolipoproteins (automated analyzer); assay type: in vivo, human; conditions: DHA 600 mg (n = 28); Fast; 6 weeks
Protocol: (§3) At visit 2, subjects were again asked to fast for 12 hours, and information about subject characteristics including all vital signs, recent illness or hospitalization, medication and supplement use, and diet information was again obtained. Subjects then had blood drawn for a metabolic profile and complete blood counts. […] Subjects (30 in each group) were then randomized equally for 6 weeks to one of four treatment arms: 1) olive oil placebo; 2) 600 mg of EPA/day; 3) 1800 mg of EPA/day; and, 4) 600 mg of DHA/day. At one week and three weeks after beginning the supplements, all study subjects were contacted by telephone and asked about any adverse effects and about their compliance, and the information on their calendars with regard to capsule use and fish intake. They were also asked about whether they had experienced any fishy aftertaste or odor, and if so, how frequent were these episodes, and how unpleasant were they? The entire process as listed above was repeated after study subjects were on the study capsules for 6 weeks at the time of the final visit. Compliance and adverse events were assessed by telephone at weeks 1 and 3 by telephone and at week 6 by questionnaire and capsule count. Over 42 days, subjects were expected to have consumed a total of 252 capsules. Compliance was calculated as a percentage of consumed capsule count/expected capsule count based on the number of days the subject was in the study. All subjects were asked to stay on their capsules until they come in for their final visit. Compliance in all participants who completed the study was based on capsule count was in excess of 85%, mean 96%.
as §2, §1

[5] = Clinical study: post-prandial lipids 4 hours after fat-rich test meal; assay type: in vivo, human; conditions: DHA 600 mg (n = 28), 6 weeks
Protocol: as §3, §1

[6] = doses of approximately 1200 mg/day; cited from earlier work

- retroconversion of DHA to EPA [1]: no indication
- serum level of EPA ([1]; EPA 600 and 1800 mg/day, DHA 600 mg/day, FIG. 1): not
Compound: CCC=CCC=CCC=CCC=CCC=CC/C=C\CCC(=O)O [DHA, cis-4,7, 10, 13, 16, 19-docosahexaenoic acid, reference compound]
- Total Omega-3 Score ([1]; FIG. 4): increased
- serum ratio of ARA/EPA (Inflammation Index) ([1]; EPA 600 and 1800 mg/day, DHA 600 mg/day, FIG. 3, listed as DHA-rich oil): no such effect
- Adiponectin, 6-Week Change (%) [2]: −6.7 ± 19.8%
- Adiponectin, Final [2]: 11380.0 ± 14772.6 ng/mL
- IL-6, 6-Week Change (%) [2]: +5.7 ± 50.3%
- IL-6, Final [2]: 1.6 ± 0.9 pg/mL
- VCAM, 6-Week Change (%) [2]: +0.2 ± 11.0%
- VCAM, Final [2]: 673.0 ± 197.4 ng/mL
- hsCRP, 6-Week Change (%) [2]: +27.1 ± 82.3%
- hsCRP, Final [2]: 3.4 ± 4.5 mg/L
- sICAM, 6-Week Change (%) [2]: +0.7 ± 18.0%
- sICAM, Final [2]: 240.2 ± 114.1 ng/mL
- better absorbed than EE forms [3]: 36%
- HDL C, 6-Week Change (%) [4]: +1.3 ± 14.7%
- HDL C, Final [4]: 62.0 ± 23.7 mg/dL
- LDL C, Final [4]: 130.3 ± 37.2 mg/dL
- Lp(a), 6-Week Change (%) [4]: +27.7 ± 156.3%
- Lp(a), Final [4]: 40.0 ± 40.1 mg/dL
- Total Cholesterol, 6-Week Change (%) [4]: +2.9 ± 12.0%
- Total Cholesterol, Final [4]: 216.1 ± 44.1 mg/dL
- Triglyceride, 6-Week Change (%) [4]: −5.8 ± 30.4%
- Triglyceride, Final [4]: 104.4 ± 58.0 mg/dL
- apoA-I, 6-Week Change (%) [4]: −2.0 ± 10.5%
- apoA-I, Final [4]: 177.5 ± 43.0 mg/dL
- apoB, 6-Week Change (%) [4]: +6.0 ± 15.6%
- apoB, Final [4]: 97.1 ± 25.7 mg/dL
- sdLDL, 6-Week Change (%) [4]: −2.2 ± 24.7%
- sdLDL, Final [4]: 31.1 ± 13.3 mg/dL
- HDL C, 6-Week Change (%) [5]: +1.2 ± 10.9%
- HDL C, Final [5]: 57.5 ± 22.7 mg/dL
- LDL C, Final [5]: 121.9 ± 32.9 mg/dL
- Total Cholesterol, 6-Week Change (%) [5]: +6.2 ± 10.8%
- Total Cholesterol, Final [5]: 211.1 ± 38.6 mg/dL
- Triglyceride, 6-Week Change (%) [5]: −9.5% and −9.5 ± 24.4%
- Triglyceride, Final [5]: 169.8 ± 89.2 mg/dL
- lowering of triglyceride levels [6]: about 25%
